From ChEMBL document CHEMBL6153083, “Synthesis, Structural Modification, and Antismall Cell Lung Cancer Activity of 3-Arylisoquinolines with Dual Inhibitory Activity on Topoisomerase I and II” (J Med Chem, 2025) come the findings set out here.

Active and inactive are the calls of the source. The calls are words filed in the database; no cut-off is given here. Some results are limits rather than exact numbers.

The term IC50 denotes the concentration that inhibits the measured activity by half. As a reminder, the MRT last is a mean duration of stay, worked out from the concentration-time curve.

For data set [1], the target named is T1, DNA topoisomerase 1 (Homo sapiens) (UniProt P11387).
T1 sequence (whole entry): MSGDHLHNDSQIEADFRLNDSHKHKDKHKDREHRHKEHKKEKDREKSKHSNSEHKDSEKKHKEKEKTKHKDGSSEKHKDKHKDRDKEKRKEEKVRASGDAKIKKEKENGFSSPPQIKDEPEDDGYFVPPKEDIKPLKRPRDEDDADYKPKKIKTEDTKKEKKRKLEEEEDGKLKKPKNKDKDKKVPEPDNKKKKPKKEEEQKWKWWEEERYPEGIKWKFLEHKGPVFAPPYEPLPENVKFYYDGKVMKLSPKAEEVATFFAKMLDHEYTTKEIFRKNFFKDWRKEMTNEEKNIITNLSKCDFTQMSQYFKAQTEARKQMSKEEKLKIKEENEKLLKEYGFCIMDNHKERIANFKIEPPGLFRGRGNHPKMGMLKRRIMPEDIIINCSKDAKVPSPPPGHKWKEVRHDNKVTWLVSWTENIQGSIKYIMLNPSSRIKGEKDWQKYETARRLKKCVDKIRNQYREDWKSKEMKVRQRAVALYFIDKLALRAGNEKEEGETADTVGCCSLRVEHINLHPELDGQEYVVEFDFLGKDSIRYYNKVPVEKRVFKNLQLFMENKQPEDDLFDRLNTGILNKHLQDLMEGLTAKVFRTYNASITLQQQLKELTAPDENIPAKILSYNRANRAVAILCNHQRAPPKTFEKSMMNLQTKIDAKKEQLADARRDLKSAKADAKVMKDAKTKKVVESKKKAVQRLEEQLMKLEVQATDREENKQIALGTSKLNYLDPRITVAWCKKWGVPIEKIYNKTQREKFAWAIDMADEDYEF
Put plainly: Inhibition of Topo I (unknown origin) relaxation activity using pBR322 plasmid DNA as substrate at 25 to 100 uM incubated for 30 mins. The conditions noted are these: dose 25-100 µM.

In data set [2] the test system is SHP77. The data set is described as follows: Antiproliferative activity against human SHP77 cells incubated for 72 hrs. Format: functional, cell-based. The conditions noted are these: SHP77, 72 h.
Data set [3] can be described thus: Antiproliferative activity against human BEAS-2B cells incubated for 72 hrs. Format: toxicity, cell-based.
Data set [4] is described as follows: Antiproliferative activity against human L02 cells incubated for 72 hrs. Format: toxicity, cell-based.
The test system of data set [5] is NCI-H446. The data set is described as follows: Inhibition of clonogenesis in human NCI-H446 cells incubated for 14 to 21 days by crystal violet staining based analysis. The format is functional, cell-based. The conditions noted are these: dose 0.375-3 µM, time 14-21 day.
Data set [6] has as its system NCI-H446. Put plainly: Inhibition of cell proliferation in human NCI-H446 cells incubated for 24 hrs by EdU incorporation assay. Format: functional, cell-based. The conditions noted are these: dose 0.375-3 µM.
Data set [7] concerns NCI-H446. The data set is described as follows: Inhibition of cell invasion in human NCI-H446 cells incubated for 24 hrs by transwell assay. Format: functional, cell-based.
The subject of data set [8] is NCI-H1048. Put plainly: Inhibition of cell invasion in human NCI-H1048 cells incubated for 24 hrs by transwell assay. The format is functional, cell-based.
Data set [9] deals with NCI-H1048. The data set is described as follows: Induction of apoptosis in human NCI-H1048 cells assessed as reduction in cell viability incubated for 48 hrs by Geimsa staining based analysis. Format: functional.
In data set [10] the test system is NCI-H446. The data set is described as follows: Induction of apoptosis in human NCI-H446 cells assessed as chromatin condensation at 1 to 8 uM incubated for 48 hrs by Geimsa staining based analysis. Format: functional, cell-based. The conditions noted are these: dose 1-8 µM.
Data set [11] relates to NCI-H446. Put plainly: Induction of early apoptosis in human NCI-H446 cells incubated for 48 hrs by Annexin V-FITC/PI staining based flow cytometry. Format: functional, cell-based. The conditions noted are these: dose 1-8 µM.
The subject of data set [12] is NCI-H1048. The data set is described as follows: Induction of early apoptosis in human NCI-H1048 cells incubated for 48 hrs by Annexin V-FITC/PI staining based flow cytometry. The format is functional, cell-based. The conditions noted are these: dose 1-8 µM. A general note: In flow cytometry, cells or beads pass a laser one at a time.
In data set [13] the test system is NCI-H1048. Put plainly: Induction of mitochondrial dysfunction in human NCI-H1048 cells assessed as increase in ROS level at 1 to 8 uM incubated for 48 hrs by DCFH-DA staining based flow cytometry. The format is functional, cell-based. The conditions noted are these: dose 1-8 µM.
The test system of data set [14] is NCI-H446. Put plainly: Induction of mitochondrial membrane permeability in human NCI-H446 cells assessed as increase in cytochrome C release at 1 to 8 uM incubated for 48 hrs by Western blot analysis. The format is functional, cell-based. The conditions noted are these: dose 1-8 µM. (In general: A western blot detects proteins with antibodies after separation by electrophoresis.)

For data set [15], the system named is NCI-H1048. Put plainly: Induction of apoptosis in human NCI-H1048 cells assessed as increase in Bax level incubated for 48 hrs by Western blot analysis. The format is functional, cell-based.
In data set [16] the test system is NCI-H1048. The data set is described as follows: Induction of apoptosis in human NCI-H1048 cells assessed as increase in cleaved caspase-3 level incubated for 48 hrs by Western blot analysis. The format is functional, cell-based.
Data set [17] can be described thus: Inhibition of PI3K/AKT/mTOR signalling pathway in human NCI-H1048 cells assessed as decrease in PI3K phosphorylation at 1 to 8 uM incubated for 48 hrs by Western blot analysis. The format is cell-based. The conditions noted are these: dose 1-8 µM.
Data set [18] can be described thus: Inhibition of PI3K/AKT/mTOR signalling pathway in human NCI-H1048 cells assessed as decrease in AKT level at 1 to 8 uM incubated for 48 hrs by Western blot analysis. Format: cell-based. The conditions noted are these: dose 1-8 µM.
A short description of data set [19]: Inhibition of PI3K/AKT/mTOR signalling pathway in human NCI-H1048 cells assessed as decrease in mTOR level at 1 to 8 uM incubated for 48 hrs by Western blot analysis. Format: cell-based. The conditions noted are these: dose 1-8 µM.
The nature of data set [20]: MRT (0 to t) in Sprague-Dawley rat at 10 mg/kg, ip measured after 24 hrs by LC-MS/MS analysis. Format: ADME, organism-based. The conditions noted are these: in vivo.
In data set [21] the test system is NCI-H446. The data set is described as follows: Antitumor activity against human NCI-H446 cells xenografted in BALB/c nude mouse at 10 mg/kg, ip for 21 days relative to control. The format is functional. The conditions noted are these: NCI-H446, 504 h, time 21 day, read-out: TGI. In general terms: In xenograft studies the graft and the host belong to different species.

Data set [22] deals with NCI-H446. Put plainly: Antitumor activity against human NCI-H446 cells xenografted in BALB/c nude mouse at 20 mg/kg, ip for 21 days relative to control. The format is functional. The conditions noted are these: NCI-H446, 504 h, time 21 day, read-out: TGI.
Data set [23] in a line: Toxicity in BALB/c nude mouse xenografted with human NCI-H446 cells assessed as deleterious effect in kidney at 10 to 20 mg/kg, ip for 21 days by H and E staining based analysis. Format: organism-based. The conditions noted are these: in vivo, 504 h, dose 10-20 mg/kg, time 21 day.
Data set [24] relates to NCI-H446. The data set is described as follows: Induction of apoptosis in human NCI-H446 cells assessed as formation of cellular fragments at 1 to 8 uM incubated for 48 hrs by Annexin V-FITC/PI staining based flow cytometry. Format: functional, cell-based. The conditions noted are these: dose 1-8 µM.
Data set [25] has as its system NCI-H1048. The data set is described as follows: Induction of apoptosis in human NCI-H1048 cells at 1.75 to 14 uM incubated for 48 hrs by Annexin V-FITC/PI staining based flow cytometry. The conditions noted are these: dose 1.75-14 µM. Format: functional, cell-based.
Data set [26] concerns NCI-H1048. The data set is described as follows: Induction of mitochondrial dysfunction in human NCI-H1048 cells assessed as increase in ROS level at 1.75 to 14 uM incubated for 48 hrs by DCFH-DA staining based flow cytometry. The format is functional, cell-based. The conditions noted are these: dose 1.75-14 µM.
Data set [27] relates to NCI-H1048. Put plainly: Induction of mitochondrial membrane permeability in human NCI-H1048 cells assessed as increase in cytochrome C release at 1.75 to 14 uM incubated for 48 hrs by Western blot analysis. Format: functional, cell-based. The conditions noted are these: dose 1.75-14 µM.
A short description of data set [28]: Inhibition of PI3K/AKT/mTOR signalling pathway in human NCI-H1048 cells assessed as decrease in PI3K phosphorylation at 1.75 to 14 uM incubated for 48 hrs by Western blot analysis. The conditions noted are these: dose 1.75-14 µM. Format: cell-based.
Data set [29] in a line: Inhibition of PI3K/AKT/mTOR signalling pathway in human NCI-H1048 cells assessed as decrease in mTOR level at 1.75 to 14 uM incubated for 48 hrs by Western blot analysis. Format: cell-based. The conditions noted are these: dose 1.75-14 µM.

`CC1CC(C)CN(Cc2cc3c(cc2-c2cc4ccc5c(c4cn2)OCO5)OCO3)C1` (stereo not given): the inhibition result in [1], in data set [18] and in data set [19] was “Active” throughout. For the same compound, in data set [2], the IC50 stood at 7.92 µM. For the same compound, the IC50 at 72 h in data set [3] was determined as 27.5 µM; in data set [4], 29.1 µM. Moreover, the inhibition result was “Dose-dependent-effect” in data set [5]; “Dose-dependent-effect; Exhibited Similar Inhibitory Effect To That Of Etoposide At Same Concentration” in data set [6]; “Dose-dependent-effect; Displayed Stronger Inhibitory Effect Than Etoposide” in [7]; “Dose-dependent-effect; Displayed Stronger Inhibitory Effect Than Etoposide” in [8]; “Active; Pronounced Effect Was Observed In Human Nci-H1048 Cells Than In Human Nci-H446 Cells” in [17]. The Activity result was “Dose-dependent-effect” in [9]; “Dose-dependent-effect; Exhibited Stronger Effect Than Etoposide” in data set [11]; “Dose-dependent-effect; Exhibited Stronger Effect Than Etoposide” in data set [12]; “Dose-dependent-effect” in data set [15]; “Dose-dependent-effect” in [16]; “Non-toxic” in [23]. The outcome in [10], in data set [13] and in [14] was Active. The compound further displayed an MRT last at 24 h in [20] of 5.02 h. In data set [21], the inhibition in vivo at 10 mg/kg was 75.2%. In [22], the inhibition in vivo at 20 mg/kg worked out at 82.2%.
As to `CCC1CCCC(C)N1Cc1cc2c(cc1-c1cc3ccc4c(c3cn1)OCO4)OCO2` (stereo not given), the inhibition entry in data set [1], in [28] and in data set [29] was “Active” each time. In data set [2], this compound showed an IC50 of 8.01 µM. The IC50 at 72 h in data set [3] is > 100 µM; in [4], 26.1 µM. For the same compound, the inhibition result in data set [5] was “Dose-dependent-effect”; in data set [6] it was “Dose-dependent-effect; Exhibited Similar Inhibitory Effect To That Of Etoposide At Same Concentration”; in data set [7], “Dose-dependent-effect”; in [8] it was “Dose-dependent-effect”. The Activity entry in data set [9] is “Dose-dependent-effect”; in [24], “Active; Activity Similar To Etoposide”; in [25] it was “Active; Less Effective Than Etoposide”; in data set [15] it was “Dose-dependent-effect”; in [16], “Dose-dependent-effect”; in data set [23] it was “Non-toxic”. The result in data set [10], in data set [26] and in [27] was Active. Also, the MRT last at 24 h in data set [20] turned out to be 5.42 h. The inhibition in vivo at 10 mg/kg in data set [21] worked out at 69.2%. The inhibition in vivo at 20 mg/kg in data set [22] amounted to 85.5%.
